# Assay results from patent US10669272B2, “Substituted naphthyridinone compounds useful as T cell activators” (BRISTOL-MYERS SQUIBB COMPANY, priority 2018, dated 2020).
# Read-outs that look alike come from different tables or passages of the source.
# Columns and labels:
# Human venous whole blood = experiment: Human whole blood IFN-γ assay; format: cell-based; conditions: human whole blood, read-out: INFg Whole Blood Normalized Agonist EC50;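 further: blood from healthy donors exposed to compound for 1 h before stimulation with anti-CD3 and anti-CD28 at 1 µg/mL each, IFN-γ quantified in supernatant by AlphaLISA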
# human DGKζ = molecular target: T1, human DGKζ (Homo sapiens, UniProt Q13574); experiment: DGKζ LIPGLO assay (extruded liposome substrate), in vitro DGK inhibition; format: biochemical; conditions: read-out: DGKz LIPGLO IC50
# T1 construct: TVMV protease cleavage site (C); Hexa-His (C); made in house; host or cells: Sf9 insect cells (baculovirus, Bac-to-Bac)
# human DGKα = molecular target: T2, human DGKα (Homo sapiens, UniProt P23743); experiment: DGKα LIPGLO assay (extruded liposome substrate), in vitro DGK inhibition; format: biochemical; conditions: read-out: DGKa LIPGLO IC50
# T2 construct: TVMV protease cleavage site (C); Hexa-His (C); made in house; host or cells: Sf9 insect cells (baculovirus, Bac-to-Bac)
# [1] = normalized to 3 μM reference compound with anti-CD3 plus anti-CD28 as 100% activation
# [2] = Homo sapiens, 24 h, anti-CD3 plus anti-CD28, 24 hours, 3 μM reference compound = 100% activation
# [3] = anti-CD3 plus anti-CD28, 24 hours, 3 μM reference compound = 100% activation
# [4] = Homo sapiens, 24 h, normalized to 3 μM reference compound with anti-CD3 plus anti-CD28 as 100% activation
# T2 sequence (P23743 with tags, fused parts or gaps): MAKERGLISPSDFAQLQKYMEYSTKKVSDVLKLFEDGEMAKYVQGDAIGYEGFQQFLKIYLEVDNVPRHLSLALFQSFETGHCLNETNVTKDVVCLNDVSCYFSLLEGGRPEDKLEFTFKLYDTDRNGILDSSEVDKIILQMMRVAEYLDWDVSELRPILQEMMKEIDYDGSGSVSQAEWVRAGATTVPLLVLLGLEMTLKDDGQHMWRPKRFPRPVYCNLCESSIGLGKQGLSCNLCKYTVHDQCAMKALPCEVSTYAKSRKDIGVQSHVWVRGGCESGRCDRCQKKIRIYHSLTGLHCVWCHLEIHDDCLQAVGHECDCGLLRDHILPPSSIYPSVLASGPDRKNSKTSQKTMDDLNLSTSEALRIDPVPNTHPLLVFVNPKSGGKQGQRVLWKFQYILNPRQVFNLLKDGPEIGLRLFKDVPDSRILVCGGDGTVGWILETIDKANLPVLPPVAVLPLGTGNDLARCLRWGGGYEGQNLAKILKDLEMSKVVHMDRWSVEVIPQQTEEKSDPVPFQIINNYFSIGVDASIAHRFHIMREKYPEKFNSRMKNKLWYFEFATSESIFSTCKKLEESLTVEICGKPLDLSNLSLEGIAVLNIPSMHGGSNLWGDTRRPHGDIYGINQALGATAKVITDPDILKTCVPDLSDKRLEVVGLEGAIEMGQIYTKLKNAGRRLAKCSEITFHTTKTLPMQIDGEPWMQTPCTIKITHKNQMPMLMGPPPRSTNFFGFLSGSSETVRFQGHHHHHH
# T1 sequence (Q13574 with tags, fused parts or gaps isoform Q13574-4): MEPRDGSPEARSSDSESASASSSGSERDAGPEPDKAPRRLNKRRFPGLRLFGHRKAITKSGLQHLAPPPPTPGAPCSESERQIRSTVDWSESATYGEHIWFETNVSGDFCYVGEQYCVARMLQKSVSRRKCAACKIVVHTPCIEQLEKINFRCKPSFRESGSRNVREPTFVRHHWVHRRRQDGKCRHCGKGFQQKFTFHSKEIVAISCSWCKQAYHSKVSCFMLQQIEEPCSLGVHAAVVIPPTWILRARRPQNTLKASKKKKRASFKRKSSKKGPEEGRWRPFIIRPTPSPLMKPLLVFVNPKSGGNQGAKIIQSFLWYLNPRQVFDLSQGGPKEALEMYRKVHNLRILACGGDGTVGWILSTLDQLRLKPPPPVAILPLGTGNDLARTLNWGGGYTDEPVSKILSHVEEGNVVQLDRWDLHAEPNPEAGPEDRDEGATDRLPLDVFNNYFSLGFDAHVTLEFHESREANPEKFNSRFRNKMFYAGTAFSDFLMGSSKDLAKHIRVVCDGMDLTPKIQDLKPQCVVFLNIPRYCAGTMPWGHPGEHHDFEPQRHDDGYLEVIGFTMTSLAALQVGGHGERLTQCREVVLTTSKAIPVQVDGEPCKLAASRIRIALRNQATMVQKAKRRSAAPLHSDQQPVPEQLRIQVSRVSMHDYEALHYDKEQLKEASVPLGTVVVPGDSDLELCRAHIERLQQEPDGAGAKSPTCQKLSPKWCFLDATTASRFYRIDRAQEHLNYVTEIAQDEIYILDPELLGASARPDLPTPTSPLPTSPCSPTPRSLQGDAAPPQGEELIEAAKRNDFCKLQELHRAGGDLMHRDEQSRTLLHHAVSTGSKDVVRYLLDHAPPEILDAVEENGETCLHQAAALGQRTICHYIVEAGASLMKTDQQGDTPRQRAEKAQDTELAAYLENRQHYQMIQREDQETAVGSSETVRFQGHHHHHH
Compound,IC50 (human DGKζ; liposome (LIPGLO) assay) [µM],IC50 (human DGKα; liposome (LIPGLO) assay) [µM],IC50 (human DGKζ; DGKζ liposome (LIPGLO) assay) [µM],IC50 (human DGKα; DGKα liposome (LIPGLO) assay) [µM],EC50 (Human venous whole blood; [1]) [µM],EC50 (Human venous whole blood; [2]) [µM],EC50 (Human venous whole blood; [3]) [µM],EC50 (Human venous whole blood; [4]) [µM]
"CC[C@@H]1CN(c2cc(=O)n(C)c3ccc(C#N)nc23)[C@@H](C)CN1C(C)c1ccc(F)c(F)c1 (single isomer, unassigned) [Example 1092]",4,3.7,–,–,3.2,–,–,–
"CC[C@H]1CN(C(c2ccc(F)cc2)c2cc(C3CC3)on2)[C@H](CC)CN1c1cc(=O)n(C)c2ccc(C#N)nc12 (single isomer, unassigned) [Example 1075]",0.027,0.011,–,–,0.037,–,–,–
"C[C@@H]1CN(c2cc(=O)n(C)c3ccc(C#N)nc23)[C@@H](C)CN1C(c1ccc(F)cc1)c1nc(C2CC2)co1 (single isomer, unassigned) [Example 777]",–,–,0.75,0.068,–,0.77,–,–
"CC(c1ccccc1F)N1C[C@H](C)N(c2c(C#N)c(=O)n(C)c3ccc(C#N)nc23)C[C@H]1C (single isomer, unassigned) [Example 797]",–,–,8.6,1.8,–,–,1.8,–
"C[C@@H]1CN(c2c(C#N)c(=O)n(C)c3ccc(C#N)nc23)CCN1C(c1ccc(F)cc1)c1cccc2c1OC(F)(F)O2 (single isomer, unassigned) [Example 940]",–,–,7.2,25,–,–,2.2,–
CC[C@@H]1CN(c2cc(=O)n(C)c3ccc(C#N)nc23)[C@@H](C)CN1Cc1ccc(F)cc1Cl [Example 1078],0.11,2.7,–,–,–,–,–,0.97
"CC(c1c(F)cccc1F)N1C[C@H](C)N(c2c(C#N)c(=O)n(C)c3ccc(C#N)nc23)C[C@H]1C (single isomer, unassigned) [Example 780]",–,–,31,1.5,–,14,–,–
"COc1ccc(C(C)N2C[C@H](C)N(c3c(C#N)c(=O)n(C)c4ccc(C#N)nc34)C[C@H]2C)nc1 (single isomer, unassigned) [Example 800]",–,–,0.33,0.38,–,–,5.9,–
"C[C@@H]1CN(c2cc(=O)n(C)c3ccc(C#N)nc23)[C@@H](C)CN1C(CO)c1ccc(F)cc1 (single isomer, unassigned) [Example 557]",5.3,0.5,–,–,1.6,–,–,–
"COCC(c1ccc(F)cc1)N1C[C@H](C)N(c2cc(=O)n(C)c3ccc(C#N)nc23)C[C@H]1C (single isomer, unassigned) [Example 559]",2.7,0.065,–,–,–,–,–,0.27
"C[C@@H]1CN(c2cc(=O)n(C)c3ccc(C#N)nc23)[C@@H](C)CN1C(c1ccc(F)cc1)c1nnnn1C(C)(C)C (single isomer, unassigned) [Example 771]",–,–,8.5,6.3,–,–,10,–
CC[C@@H]1CN(c2cc(=O)n(C)c3ccc(C#N)nc23)[C@@H](C)CN1Cc1c(F)cc(F)cc1F [Example 1080],0.69,0.64,–,–,–,–,–,0.24
C[C@@H]1CN(c2c(C#N)c(=O)n(C)c3ccc(C#N)nc23)CCN1C(c1ccc(F)cc1)c1cnn(C)c1 (stereo partly drawn) [Example 1016],–,–,7.5,3.3,–,3.3,–,–
"C[C@@H]1CN(c2cc(=O)n(C)c3ccc(C#N)nc23)[C@@H](C)CN1C(c1ccc(F)cc1)c1cncnc1 (single isomer, unassigned) [Example 393]",7.1,1.6,–,–,3.5,–,–,–
"C[C@@H]1CN(c2cc(=O)n(C)c3ccc(C#N)nc23)[C@@H](C)CN1C(c1ccc(F)cc1)c1cccc(S(C)(=O)=O)c1 (single isomer, unassigned) [Example 689]",3,7.6,–,–,1.5,–,–,–
"C[C@@H]1CN(c2cc(=O)n(C)c3ccc(C#N)nc23)[C@@H](C)CN1C(c1ccc(F)cn1)c1ccc(F)cn1 [Example 407, 8-((2S,5R)-4-(bis(5-fluoropyridin-2-yl)methyl)-2,5-dimethylpiperazin-1-yl)-5-methyl-6-oxo-5,6-dihydro-1,5-naphthyridine-2-carbonitrile]",1,0.029,–,–,–,–,–,20
"CC(C)c1noc(C(c2ccc(F)cc2)N2C[C@H](C)N(c3cc(=O)n(C)c4ccc(C#N)nc34)C[C@H]2C)n1 (single isomer, unassigned) [Example 747]",–,–,0.069,0.3,–,–,0.18,–
C[C@@H]1CN(c2cc(=O)n(C)c3ccc(C#N)nc23)[C@@H](C)CN1Cc1cccc2c1OCCN2 [Example 634],9,4.3,–,–,–,–,–,2.9
C[C@@H]1CN(c2cc(=O)n(C)c3ccc(C#N)nc23)[C@@H](C)CN1Cc1ccc(OC(F)(F)F)c(C#N)c1 [Example 584],7.9,5.9,–,–,–,–,–,3.4
"C[C@@H]1CN(c2c(C#N)c(=O)n(C)c3ccc(C#N)nc23)CCN1C(c1ccc(F)cc1)c1cncn1C (single isomer, unassigned) [Example 1018]",–,–,74,81,–,20,–,–
"CC(c1ccc2nccnc2c1)N1C[C@H](C)N(c2cc(=O)n(C)c3ccc(C#N)nc23)C[C@H]1C (single isomer, unassigned) [Example 650]",0.011,2.5,–,–,0.29,–,–,–

# The next lines start with results.
IC50 (human DGKζ; liposome (LIPGLO) assay) [µM],IC50 (human DGKα; liposome (LIPGLO) assay) [µM],IC50 (human DGKζ; DGKζ liposome (LIPGLO) assay) [µM],IC50 (human DGKα; DGKα liposome (LIPGLO) assay) [µM],Compound,EC50 (Human venous whole blood; [1]) [µM],EC50 (Human venous whole blood; [2]) [µM],EC50 (Human venous whole blood; [3]) [µM],EC50 (Human venous whole blood; [4]) [µM]
2.8,2.5,–,–,C[C@@H]1CN(c2cc(=O)n(C)c3ccc(C#N)nc23)[C@@H](C)CN1Cc1noc2ccccc12 [Example 1433],–,–,–,13
0.98,10,–,–,Cc1ccc(C(c2ccc(C)cc2)N2C[C@@H](C)N(c3cc(=O)n(C)c4ccc(C#N)nc34)C[C@@H]2CO)cc1 [Example 1173],–,–,–,1.4
4.9,40,–,–,"CC(c1ccc(OC(F)(F)F)cc1)N1C[C@H](C)N(c2cc(=O)n(C)c3ccc(C#N)nc23)C[C@H]1CN(C)C (single isomer, unassigned) [Example 1414]",–,–,–,10
1.2,34,–,–,C[C@@H]1CN(Cc2c(F)cc(F)cc2F)[C@@H](CO)CN1c1cc(=O)n(C)c2ccc(C#N)nc12 [Example 1182],–,–,–,20
0.45,0.16,–,–,"COC[C@@H]1CN(c2cc(=O)n(C)c3ccc(C#N)nc23)[C@@H](C)CN1C(c1ccc(F)cc1)c1ccon1 (single isomer, unassigned) [Example 1399]",3,–,–,–
15,4,–,–,C[C@H]1CN(Cc2ccc3c(c2)OC(F)(F)O3)[C@H](CO)CN1c1cc(=O)n(C)c2ccc(C#N)nc12 [Example 1390],–,–,–,14
2.8,1.4,–,–,"CCC(c1ccc(OC(F)(F)F)cc1F)N1C[C@H](CC)N(c2cc(=O)n(C)c3ccc(C#N)nc23)C[C@H]1C (single isomer, unassigned) [Example 1378]",9.5,–,–,–
1.7,0.75,–,–,"CC(c1ccc(C#N)cc1F)N1C[C@H](C)N(c2cc(=O)n(C)c3ccc(C#N)nc23)C[C@H]1C (single isomer, unassigned) [Example 1226]",8.7,–,–,–
14,1.8,–,–,"C[C@@H]1CN(c2cc(=O)[nH]c3ccc(C#N)nc23)[C@@H](C)CN1C(c1ccc(F)cc1)c1ccc(C#N)cc1 (stereo partly drawn) [Example 1336, 8-((2S,5R)-4-((4-cyanophenyl)(4-fluorophenyl)methyl)-2,5-dimethylpiperazin-1-yl)-6-oxo-5,6-dihydro-1,5-naphthyridine-2-carbonitrile]",–,–,–,11
0.016,0.0044,–,–,CC[C@@H]1CN(c2cc(=O)n(C)c3ccc(C#N)nc23)[C@@H](C)CN1C(C)c1ccc(OC(F)F)cc1 (stereo partly drawn) [Example 1343],–,–,–,0.051
0.7,5.9,–,–,CC[C@H]1CN(C(C)c2cc(F)cc(OC(F)(F)F)c2)[C@H](C)CN1c1cc(=O)n(C)c2ccc(C#N)nc12 (stereo partly drawn) [Example 1385],5.3,–,–,–
0.13,0.36,–,–,"COC[C@@H]1CN(c2cc(=O)n(C)c3ccc(C#N)nc23)[C@@H](C)CN1C(C)c1ccc(F)cc1 (single isomer, unassigned) [Example 1159]",–,–,–,0.3
